Measured values from patent publication US8877759B2, “Aminopyrazines as ATR kinase inhibitors” (Vertex Pharnaceuticals Incorporated, priority 2011, dated 2014).

These molecules were tested against T1, full-length ATR (Homo sapiens, UniProt Q13535) (assay: ATR Inhibition Assay (radioactive-phosphate incorporation)). Conditions: not given.
T1 construct: Assays were carried out at 25° C. in the presence of 5 nM full-length ATR
Assay type: biochemical
Protocol: Compounds were screened for their ability to inhibit ATR kinase using a radioactive-phosphate incorporation assay. Assays were carried out in a mixture of 50 mM Tris/HCl (pH 7.5), 10 mM MgCl2 and 1 mM DTT.
Assays were carried out at 25° C. in the presence of 5 nM full-length ATR. An assay stock buffer solution was prepared containing all of the reagents listed above, with the exception of ATP and the test compound of interest. […] The plate was pre-incubated for 10 minutes at 25° C. and the reaction initiated by addition of 15 μL [γ-33P]ATP (final concentration 10 μM).
The reaction was stopped after […] by the addition of 30 μL 0.1M phosphoric acid containing 2 mM ATP. A multiscreen phosphocellulose filter 96-well plate (Millipore, Cat no. MAPHN0B50) was pretreated with 100 μL 0.2M phosphoric acid prior to the addition of 45 μL of the stopped assay mixture. The plate was washed with 5×200 μL 0.2M phosphoric acid.
After removing mean background values for all of the data points, Ki(app) data were calculated from non-linear regression analysis of the initial rate data using the Prism software package (GraphPad Prism version 3.0cx for Macintosh, GraphPad Software, San Diego Calif., USA).

T1 sequence (Q13535 whole entry): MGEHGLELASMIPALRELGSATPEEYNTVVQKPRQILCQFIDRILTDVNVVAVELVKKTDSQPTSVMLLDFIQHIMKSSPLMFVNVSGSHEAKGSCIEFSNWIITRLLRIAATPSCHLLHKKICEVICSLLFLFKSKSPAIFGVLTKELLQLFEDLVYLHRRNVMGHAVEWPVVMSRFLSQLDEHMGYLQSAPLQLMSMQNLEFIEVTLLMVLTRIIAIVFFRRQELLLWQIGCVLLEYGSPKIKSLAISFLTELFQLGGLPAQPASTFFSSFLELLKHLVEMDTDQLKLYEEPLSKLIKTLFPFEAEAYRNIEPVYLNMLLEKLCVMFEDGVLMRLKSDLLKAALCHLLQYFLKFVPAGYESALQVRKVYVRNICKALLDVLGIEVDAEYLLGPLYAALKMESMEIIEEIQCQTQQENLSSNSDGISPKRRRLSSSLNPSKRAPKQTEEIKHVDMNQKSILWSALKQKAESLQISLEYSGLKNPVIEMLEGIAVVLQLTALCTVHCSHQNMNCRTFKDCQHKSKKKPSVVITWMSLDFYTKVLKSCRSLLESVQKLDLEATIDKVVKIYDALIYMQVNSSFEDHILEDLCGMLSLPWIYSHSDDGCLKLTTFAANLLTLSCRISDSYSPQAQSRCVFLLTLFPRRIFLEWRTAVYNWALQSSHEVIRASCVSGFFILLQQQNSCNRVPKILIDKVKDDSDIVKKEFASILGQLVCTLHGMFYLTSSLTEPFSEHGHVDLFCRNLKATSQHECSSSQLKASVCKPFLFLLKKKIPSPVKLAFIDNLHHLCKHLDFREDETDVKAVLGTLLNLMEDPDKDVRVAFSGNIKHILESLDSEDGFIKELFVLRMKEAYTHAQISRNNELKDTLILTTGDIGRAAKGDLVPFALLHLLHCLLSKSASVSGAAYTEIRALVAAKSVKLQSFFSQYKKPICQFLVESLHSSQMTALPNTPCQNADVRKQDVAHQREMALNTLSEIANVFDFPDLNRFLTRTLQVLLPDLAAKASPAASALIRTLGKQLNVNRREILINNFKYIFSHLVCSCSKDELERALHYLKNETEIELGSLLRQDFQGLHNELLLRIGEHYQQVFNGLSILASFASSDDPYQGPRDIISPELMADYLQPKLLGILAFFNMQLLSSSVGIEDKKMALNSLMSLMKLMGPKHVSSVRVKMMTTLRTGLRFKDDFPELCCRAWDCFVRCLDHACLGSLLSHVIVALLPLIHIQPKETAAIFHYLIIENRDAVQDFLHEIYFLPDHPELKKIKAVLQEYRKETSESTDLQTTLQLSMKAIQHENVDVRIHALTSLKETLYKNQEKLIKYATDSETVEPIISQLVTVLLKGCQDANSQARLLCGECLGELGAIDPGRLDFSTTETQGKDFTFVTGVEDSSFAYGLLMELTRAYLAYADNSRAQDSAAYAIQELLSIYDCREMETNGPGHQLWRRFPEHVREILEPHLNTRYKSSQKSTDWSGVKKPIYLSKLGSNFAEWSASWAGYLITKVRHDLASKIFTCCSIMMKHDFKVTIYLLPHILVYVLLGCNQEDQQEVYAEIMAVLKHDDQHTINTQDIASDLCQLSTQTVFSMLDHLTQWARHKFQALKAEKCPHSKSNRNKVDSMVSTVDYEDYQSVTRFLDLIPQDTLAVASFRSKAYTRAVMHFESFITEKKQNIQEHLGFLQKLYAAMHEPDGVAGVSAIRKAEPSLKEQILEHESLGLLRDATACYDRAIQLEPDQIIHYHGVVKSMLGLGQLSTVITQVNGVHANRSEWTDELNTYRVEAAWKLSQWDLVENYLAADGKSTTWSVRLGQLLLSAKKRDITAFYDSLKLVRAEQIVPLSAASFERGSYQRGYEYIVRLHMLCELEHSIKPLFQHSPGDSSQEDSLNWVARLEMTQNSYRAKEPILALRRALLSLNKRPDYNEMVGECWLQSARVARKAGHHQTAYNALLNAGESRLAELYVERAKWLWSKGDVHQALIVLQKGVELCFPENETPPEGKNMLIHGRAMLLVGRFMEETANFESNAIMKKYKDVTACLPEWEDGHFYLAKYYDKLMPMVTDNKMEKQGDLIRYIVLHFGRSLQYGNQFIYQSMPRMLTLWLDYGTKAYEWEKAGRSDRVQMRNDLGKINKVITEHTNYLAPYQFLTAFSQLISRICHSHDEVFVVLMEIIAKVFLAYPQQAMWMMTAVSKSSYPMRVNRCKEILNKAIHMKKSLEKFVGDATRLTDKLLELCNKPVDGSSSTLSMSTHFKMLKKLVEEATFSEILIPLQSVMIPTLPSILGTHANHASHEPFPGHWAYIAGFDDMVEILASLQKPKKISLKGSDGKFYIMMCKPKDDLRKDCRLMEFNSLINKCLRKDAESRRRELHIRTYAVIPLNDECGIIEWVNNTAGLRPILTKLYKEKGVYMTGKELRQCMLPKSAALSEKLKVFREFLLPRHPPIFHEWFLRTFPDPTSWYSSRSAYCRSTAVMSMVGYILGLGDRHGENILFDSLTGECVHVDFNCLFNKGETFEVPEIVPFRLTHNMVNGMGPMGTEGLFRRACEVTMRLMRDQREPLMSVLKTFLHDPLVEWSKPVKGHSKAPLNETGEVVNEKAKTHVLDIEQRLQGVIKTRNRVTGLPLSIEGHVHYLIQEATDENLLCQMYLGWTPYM

| Ki | SMILES |
| --- | --- |
| < 1 nM | CNCc1ccc(-c2cc(-c3nc(-c4ccnc(C(C)(C)C(N)=O)c4)cnc3N)on2)cc1 [Compound I-10, 2-[4-[5-amino-6-[3-[4-(methylaminomethyl)phenyl]isoxazol-5-yl]pyrazin-2-yl]-2-pyridyl]-2-methyl-propanamide] |
| < 1 nM | CNCc1ccc(-c2cc(-c3nc(-c4ccnc(C(C)(C)C(=O)N(C)C)c4)cnc3N)on2)cc1 [Compound I-11, 2-[4-[5-amino-6-[3-[4-(methylaminomethyl)phenyl]isoxazol-5-yl]pyrazin-2-yl]-2-pyridyl]-N,N,2-trimethyl-propanamide] |
| < 1 nM | CNCc1ccc(-c2cc(-c3nc(-c4ccnc(C5(C(N)=O)CCOCC5)c4)cnc3N)on2)cc1 [Compound I-13, 4-[4-[5-amino-6-[3-[4-(methylaminomethyl)phenyl]isoxazol-5-yl]pyrazin-2-yl]-2-pyridyl]tetrahydropyran-4-carboxamide] |
| < 1 nM | CNCc1ccc(-c2cc(-c3nc(-c4ccnc(C(C)(C)S(C)(=O)=O)c4)cnc3N)on2)cc1 [Compound I-14, 3-[3-[4-(methylaminomethyl)phenyl]isoxazol-5-yl]-5-[2-(1-methyl-1-methylsulfonyl-ethyl)-4-pyridyl]pyrazin-2-amine] |
| < 1 nM | CNCc1ccc(-c2cc(-c3nc(-c4ccnc(C(C)S(C)(=O)=O)c4)cnc3N)on2)cc1 (stereo not drawn) [Compound I-15, 3-[3-[4-(methylaminomethyl)phenyl]isoxazol-5-yl]-5-[2-(1-methylsulfonylethyl)-4-pyridyl]pyrazin-2-amine] |
| < 1 nM | CC(C)(C#N)c1cc(-c2cnc(N)c(-c3cc(-c4ccc(C(N)CF)cc4)no3)n2)ccn1 (stereo not drawn) [Compound I-16, 2-[4-[5-amino-6-[3-[4-(1-amino-2-fluoro-ethyl)phenyl]isoxazol-5-yl]pyrazin-2-yl]-2-pyridyl]-2-methyl-propanenitrile] |
| < 1 nM | CC(C)(C#N)c1cc(-c2cnc(N)c(-c3cc(-c4ccc(CN[C@@H]5CCOC5)cc4)no3)n2)ccn1 [Compound I-17, 2-[4-[5-amino-6-[3-[4-[[[(3R)-tetrahydrofuran-3-yl]amino]methyl]phenyl]isoxazol-5-yl]pyrazin-2-yl]-2-pyridyl]-2-methyl-propanenitrile] |
| < 1 nM | CC(C)(C#N)c1cc(-c2cnc(N)c(-c3cc(-c4ccc(CNC5COC5)cc4)no3)n2)ccn1 [Compound I-18, 2-[4-[5-amino-6-[3-[4-[(oxetan-3-ylamino)methyl]phenyl]isoxazol-5-yl]pyrazin-2-yl]-2-pyridyl]-2-methyl-propanenitrile] |
| 5 to 20 nM | CC(C)(C(=O)N1CCNCC1)c1cc(-c2cnc(N)c(-c3cc(-c4ccccc4)no3)n2)ccn1 [Compound I-20, 2-[4-[5-amino-6-(3-phenylisoxazol-5-yl)pyrazin-2-yl]-2-pyridyl]-2-methyl-1-piperazin-1-yl-propan-1-one] |
| 5 to 20 nM | CC(C)(C(=O)NCCN1CCOCC1)c1cc(-c2cnc(N)c(-c3cc(-c4ccccc4)no3)n2)ccn1 [Compound I-21, 2-[4-[5-amino-6-(3-phenylisoxazol-5-yl)pyrazin-2-yl]-2-pyridyl]-2-methyl-N-(2-morpholinoethyl)propanamide] |
| < 1 nM | CC(C)(c1cc(-c2cnc(N)c(-c3cc(-c4ccccc4)no3)n2)ccn1)S(C)(=O)=O [Compound I-22, 5-[2-(1-methyl-1-methylsulfonyl-ethyl)-4-pyridyl]-3-(3-phenylisoxazol-5-yl)pyrazin-2-amine] |
| 5 to 20 nM | Cc1ccccc1-c1cc(-c2nc(-c3ccnc(C4(C#N)CCNCC4)c3)cnc2N)on1 [Compound I-25, 4-[4-[5-amino-6-[3-(o-tolyl)isoxazol-5-yl]pyrazin-2-yl]-2-pyridyl]piperidine-4-carbonitrile] |
| 20 to 100 nM | COc1cccc(C)c1-c1cc(-c2nc(-c3ccnc(C4(C#N)CCNCC4)c3)cnc2N)on1 [Compound I-29, 4-[4-[5-amino-6-[3-(2-methoxy-6-methyl-phenyl)isoxazol-5-yl]pyrazin-2-yl]-2-pyridyl]piperidine-4-carbonitrile] |
| < 1 nM | N#CC1(c2cc(-c3cnc(N)c(-c4cc(-c5cccs5)no4)n3)ccn2)CCNCC1 [Compound I-30, 4-[4-[5-amino-6-[3-(2-thienyl)isoxazol-5-yl]pyrazin-2-yl]-2-pyridyl]piperidine-4-carbonitrile] |

Further lines, the molecule ahead of its results:

| SMILES | Ki |
| --- | --- |
| CNCc1ccc(-c2cc(-c3nc(-c4ccnc(C(C)(C)C#N)c4)cnc3N)on2)cc1 [Compound I-1, 2-[4-[5-amino-6-[3-[4-(methylaminomethyl)phenyl]isoxazol-5-yl]pyrazin-2-yl]-2-pyridyl]-2-methyl-propanenitrile] | < 1 nM |
| CCC(C#N)(CC)c1cc(-c2cnc(N)c(-c3cc(-c4ccc(CNC)cc4)no3)n2)ccn1 [Compound I-2, 2-[4-[5-amino-6-[3-[4-(methylaminomethyl)phenyl]isoxazol-5-yl]pyrazin-2-yl]-2-pyridyl]-2-ethyl-butanenitrile] | < 1 nM |
| CCC(C#N)c1cc(-c2cnc(N)c(-c3cc(-c4ccc(CNC)cc4)no3)n2)ccn1 (stereo not drawn) [Compound I-3, 2-[4-[5-amino-6-[3-[4-(methylaminomethyl)phenyl]isoxazol-5-yl]pyrazin-2-yl]-2-pyridyl]butanenitrile] | < 1 nM |
| CNCc1ccc(-c2nnc(-c3nc(-c4ccnc(C(C)(C)C#N)c4)cnc3N)o2)cc1 [Compound I-4, 2-[4-[5-amino-6-[5-[4-(methylaminomethyl)phenyl]-1,3,4-oxadiazol-2-yl]pyrazin-2-yl]-2-pyridyl]-2-methyl-propanenitrile] | < 1 nM |
| CC(C)(C#N)c1cc(-c2cnc(N)c(-c3cc(-c4ccccc4)no3)n2)ccn1 [Compound I-5, 2-[4-[5-amino-6-(3-phenylisoxazol-5-yl)pyrazin-2-yl]-2-pyridyl]-2-methyl-propanenitrile] | < 1 nM |
| N#CC1(c2cc(-c3cnc(N)c(-c4cc(-c5ccccc5)no4)n3)ccn2)CCOCC1 [Compound I-7, 4-[4-[5-amino-6-(3-phenylisoxazol-5-yl)pyrazin-2-yl]-2-pyridyl]tetrahydropyran-4-carbonitrile] | < 1 nM |
| Cc1ccsc1-c1cc(-c2nc(-c3ccnc(C(C)(C)C#N)c3)cnc2N)on1 [Compound I-8, 2-[4-[5-amino-6-[3-(3-methyl-2-thienyl)isoxazol-5-yl]pyrazin-2-yl]-2-pyridyl]-2-methyl-propanenitrile] | < 1 nM |
| CNCc1ccc(-c2cc(-c3nc(-c4ccnc(C5(C#N)CCOCC5)c4)cnc3N)on2)cc1 [Compound I-9, 4-[4-[5-amino-6-[3-[4-(methylaminomethyl)phenyl]isoxazol-5-yl]pyrazin-2-yl]-2-pyridyl]tetrahydropyran-4-carbonitrile] | < 1 nM |

Same assay, conditions: Ki(app); 5 nM full-length ATR, 10 μM [γ-33P]ATP, 800 μM target peptide, 25° C.

| Ki | SMILES | ATR Ki |
| --- | --- | --- |
|  | N#CC1(c2cc(-c3cnc(N)c(-c4cc(-c5ccccc5)no4)n3)ccn2)CCNCC1 [Compound I-6, 4-[4-[5-amino-6-(3-phenylisoxazol-5-yl)pyrazin-2-yl]-2-pyridyl]piperidine-4-carbonitrile] | +++ (Compounds with a Ki value >5 nM but ≦1 nM are marked with “+++.”) |
|  | N#CC1(c2cc(-c3cnc(N)c(-c4cc(-c5ccccc5)no4)n3)ccn2)CCCNC1 (stereo not drawn) [Compound I-12, 3-[4-[5-amino-6-(3-phenylisoxazol-5-yl)pyrazin-2-yl]-2-pyridyl]piperidine-3-carbonitrile] | +++ (Compounds with a Ki value >5 nM but ≦1 nM are marked with “+++.”) |
| < 1 nM | CC(C)(C#N)c1cc(-c2cnc(N)c(-c3cc(-c4ccc(CN[C@H]5CCOC5)cc4)no3)n2)ccn1 [Compound I-19, 2-[4-[5-amino-6-[3-[4-[[[(3S)-tetrahydrofuran-3-yl]amino]methyl]phenyl]isoxazol-5-yl]pyrazin-2-yl]-2-pyridyl]-2-methyl-propanenitrile] |  |
|  | CC(C)(c1cc(-c2cnc(N)c(-c3cc(-c4ccccc4)no3)n2)ccn1)S(=O)(=O)C1CCNCC1 [Compound I-23, 5-[2-[1-methyl-1-(4-piperidylsulfonyl)ethyl]-4-pyridyl]-3-(3-phenylisoxazol-5-yl)pyrazin-2-amine] | +++ (Compounds with a Ki value >5 nM but ≦1 nM are marked with “+++.”) |
|  | Cc1ccsc1-c1cc(-c2nc(-c3ccnc(C4(C#N)CCNCC4)c3)cnc2N)on1 [Compound I-24, 4-[4-[5-amino-6-[3-(3-methyl-2-thienyl)isoxazol-5-yl]pyrazin-2-yl]-2-pyridyl]piperidine-4-carbonitrile] | +++ (Compounds with a Ki value >5 nM but ≦1 nM are marked with “+++.”) |
|  | N#CC1(c2cc(-c3cnc(N)c(-c4cc(-c5ccccc5O)no4)n3)ccn2)CCNCC1 [Compound I-26, 4-[4-[5-amino-6-[3-(2-hydroxyphenyl)isoxazol-5-yl]pyrazin-2-yl]-2-pyridyl]piperidine-4-carbonitrile] | +++ (Compounds with a Ki value >5 nM but ≦1 nM are marked with “+++.”) |
|  | COc1ccccc1-c1cc(-c2nc(-c3ccnc(C4(C#N)CCNCC4)c3)cnc2N)on1 [Compound I-27, 4-[4-[5-amino-6-[3-(2-methoxyphenyl)isoxazol-5-yl]pyrazin-2-yl]-2-pyridyl]piperidine-4-carbonitrile] | +++ (Compounds with a Ki value >5 nM but ≦1 nM are marked with “+++.”) |
|  | N#CC1(c2cc(-c3cnc(N)c(-c4cc(-c5ccccc5F)no4)n3)ccn2)CCNCC1 [Compound I-28, 4-(4-(5-amino-6-(3-(2-fluorophenyl)isoxazol-5-yl)pyrazin-2-yl)pyridin-2-yl)piperidine-4-carbonitrile] | +++ (Compounds with a Ki value >5 nM but ≦1 nM are marked with “+++.”) |
